Source: PMC11023993, “Piperine, quercetin, and curcumin identified as promising natural products for topical treatment of cutaneous leishmaniasis” (Parasitology Research, 2024)
Where two headings read alike, the source gives them in different places.

Legend:
L. braziliensis = tested on: L. braziliensis
Text: Golden hamsters (Mesocricetus auratus) were purchased from Charles River Laboratories (Wilmington MA, USA) and bred under specific pathogen-free conditions at the animal facility unit of the Universidad de Antioquia in Medellín, Colombia. Six- to eight-week-old, male, and female hamsters were used for the experiments. Animal experimentation protocols including handling of the animals, sample collection, and euthanasia were done in compliance of the Center for Diseases Control and Prevention guidelines for Safe Work Practices in Human and Animal Medical Diagnostic Laboratories and ARRIVE guidelines (Percie du Sert et al. [2020b]; Khairani et al. [2022]) and approved by the Institutional Ethical Committee for animal experimentation (Act No. 152 of June 01, 2023) (Percie du Sert et al. [2020a]; Khairani et al. [2022]).
Hamsters were anesthetized with ketamine (80 mg/kg, i.p.) and xylazine (15 mg/Kg) before infection and then, ∼1 × 10^8 promastigotes in stationary phase (6 days-old growth) were inoculated into the dorsum dermis (Robledo et al. [2012]). When hamsters developed ulcers larger than 12.5 mm^2, hamsters were randomly distributed into 4 groups (n = 6, each): (1) group treated with QUE (1 mg/day), (2) group treated with PIP (2.5 mg/day), (3) group treated with CUR (1.5 mg/day), (4) group treated with meglumine antimoniate (treatment control group, 200 µg/mL, intralesional). No vehicle control group was included in the present study because castor oil additive is a nonionic surfactant commonly used as an excipient in pharmaceutical formulations, particularly in solubilizing poorly water-soluble drugs. It is widely used as an ingredient in cosmetics for its conditioning properties, based on occlusive action, reducing water loss, and having a nourishing effect on the skin, hair, and nails (Marwat et al. [2017]; Khairani et al. [2022]).
Hamsters were treated daily with 40 µL of the corresponding formulation for 2 weeks, applying it directly over the lesion, while hamsters treated with meglumine antimoniate received treatment three times per week for 4 weeks. Lesion area was measured every week for 90 days with an electronic digital caliper. The body weight gain or loss was supervised every 2 weeks during the study. At the end of the study, hamsters were euthanized with an i.p. injection of ketamine (600 mg/kg) and xylazine (30 mg/kg). The experiments were carried out under normal laboratory lighting conditions. After necropsy, biopsies from healed and unhealed ulcers were removed and fixed in 10% buffered formalin, processed, and stained with hematoxylin–eosin (H-E) stain for histopathology analysis. The changes were analyzed under a standard optical microscope.

[1] = tested on: intracellular amastigotes of L. braziliensis; experiment: In vitro leishmanicidal activity against intracellular amastigotes in infected U-937 macrophages (flow cytometry); assay type: cell-based, Leishmania braziliensis; conditions: for SI (Selectivity Index = LC50/EC50): LC50 U-937 / EC50 L. braziliensis amastigotes; for EC50: Leishmania braziliensis; for Leishmanicidal activity: class by EC50 on intracellular amastigotes of L. braziliensis
Protocol: Infective L. braziliensis (MHOM/CO/88/UA301-eGFP) (Pulido et al. [2012]) were cultured in Novy-MacNeal-Nicolle (NNN) biphasic medium at 26 °C for 3 passages maximum. U-937 cells, prepared as described in the previous section, were adjusted to approximately 3 × 10^5 cells per mL of supplemented RPMI 1640 medium containing […] of PMA to induce cell adherence. One mL was dispensed into each well of a 24-well plate and platters were incubated at 37 °C in % CO2, 95% humidity atmosphere for 72 h. Then, adherent cells were infected with fluorescent promastigotes of L. braziliensis in a 15:1 parasite to cell ratio. Plates were incubated again at 34 °C and % CO2, 95% humidity atmosphere. After 24 h, non-phagocytosed parasites were washed by pipetting phosphate buffered solution (PBS) in the plate at room temperature and 500 µL of fresh complete RPMI 1640 medium was added. Then, 500 µL of each serial dilution of QUE, PIP, CUR, and amphotericin B was added to each well and plates were incubated at 34 °C with % CO2, 95% humidity atmosphere. The EC50, the median effective concentration to induce […] killing of the intracellular amastigotes in infected cells, was measured by Flow cytometry at 488 nm of excitation and 525 nm of emission. After 48 h of incubation, cells were harvested with cold dissociation buffer (1x PBS with 2% EDTA) and the harvested cells were washed with buffer (1 × PBS with 2% FBS), and results were analyzed by FlowJo 10. The EC50 was determined with a non-lineal regression using Prism GraphPad 10.
(§1) The LC50 and the EC50 were calculated by Probit analysis using GraphPad Prism 10 (San Diego, CA, USA). Both cytotoxicity and leishmanicidal activity were defined by ranges of values of LC50 and EC50 in terms of high, moderate, or low as follows: high cytotoxicity for LC50 values < 100 µM, moderate cytotoxicity for LC50 values > 100 µM but < 200 µM, and low cytotoxicity for LC50 values > 200 µM. […] In addition, the cytotoxicity in U937 macrophages was correlated with the leishmanicidal activity by calculating the Selectivity Index (SI), using the equation: SI = LC50/EC50 (Indrayanto et al. [2021]).

[2] = MTT cytotoxicity assay in uninfected U-937 macrophages; conditions: human
Protocol: (§2) U-937 (CRL-1593.2™) macrophages (ATCC, Manassas, VA, USA) were cultured in RPMI-1640 medium supplemented with 10% of FBS and incubated at 37 °C in 5% CO2, 95% humidity atmosphere. U-937 cells in the exponential growth phase were recovered, and washed by centrifugation at 1800 rpm for 10 min at room temperature; the pellet was then resuspended in supplemented RPMI 1640 medium and counted in a Neubauer chamber. The number was adjusted to 1 × 10^6 cells per mL and 100 µL was dispensed into each well of a 96-well plate. Then, another 100 µL of each serial dilution of QUE, PIP, CUR, doxorubicin, and amphotericin B was added to each well by triplicate and plates were incubated at 37 °C 5% CO2, 95% humidity atmosphere for 48 h.
(§3) The MTT solution is then added to the treated cells, where the yellow MTT is reduced to purple formazan by a variety of mitochondrial and cytosolic enzymes that are operational in viable cells. After 3 h of incubation with MTT, the formazan precipitates. Consequently, the growing medium was removed, the formazan was dissolved in DMSO, and the absorbance of the solution was measured at 570 nm using a microplate reader spectrophotometer (Varioskan Flash, Thermo Fisher Scientific).
(§4) Cells exposed to the standard cytotoxic drug doxorubicin were used as an internal control for toxicity (positive control) while cells incubated in the absence of any compound or drug were used as a control for viability (negative control). A solution of 0.5% DMSO was used as a blank solution. Non-specific absorbance was corrected by subtracting absorbance (OD) of the blank. Determinations were done by triplicate in at least two independent experiments.
(§5) The OD of viable cells that remained after treatment was compared to the OD of control cells that were not exposed to the drug. The LC50 (median lethal concentration) values and their statistical errors were calculated based on triplicates of the measurement in the independent assays. The LC50 values were determined by non-linear regression using Prism GraphPad 10.
as §1

[3] = tested on: L. braziliensis-induced cutaneous leishmaniasis ulcers; experiment: Histopathological analysis (H-E) of healed ulcers from treated hamsters; assay type: in vivo, golden hamsters (Mesocricetus auratus); parameters: key to Dermis: oedema (grade) / Dermis: granulomatous inflammation (grade) / Epidermis: orthokeratotic hyperkeratosis (grade) / Epidermis: spongiosis (grade) / Epidermis: ulcer (grade) / Dermis: neovascularization (grade) / Dermis: fibroplasia (grade) / Dermis: leukocytic infiltrate (grade): 0, absent; 1, mild; 2, mild to moderate; 3, moderate; 4, moderate to severe; 5, severe; conditions: healed ulcer after topical treatment
Protocol: The changes were analyzed under a standard optical microscope.

macrophages = tested on: macrophages; parameters: method as in Ferreira et al. [2011]; conditions: ref Ferreira et al. [2011]; cited from earlier work
U-937 cells = experiment: MTT cytotoxicity assay in uninfected U-937 macrophages; conditions: class by LC50 in U-937 macrophages
Protocol: as §2, §3, §4, §5, §1

[4] = tested on: L. amazonensis amastigotes; parameters: method as in Ferreira et al. [2011]; conditions: ref Ferreira et al. [2011], read-out: EC50 for the amastigote stage; cited from earlier work
[5] = intracellular amastigotes of L. braziliensis in U-937 macrophages, 48 h, read-out: EC50 (Median Effective Concentration)
[6] = intralesional 200 µg/mL three times per week for 4 weeks, n = 6
[7] = intralesional 200 µg/mL, individual hamster
[8] = topical in castor oil daily for 15 days, QUE 1 mg/day, CUR 1.5 mg/day, PIP 2.5 mg/day, n = 6, followed 90 days

Castor oil
resolution of CL lesions (L. braziliensis; hamster, in vivo): has not shown resolution of the lesions

C[C@@H]1[C@H](O)[C@@H](C)/C=C/C=C/C=C/C=C/C=C/C=C/C=C/[C@H](O[C@@H]2O[C@H](C)[C@@H](O)[C@H](N)[C@@H]2O)C[C@@H]2O[C@](O)(C[C@@H](O)C[C@@H](O)[C@H](O)CC[C@@H](O)C[C@@H](O)CC(=O)O[C@H]1C)C[C@H](O)[C@H]2C(=O)O [AMB, Amphotericin B, reference compound]
SI (Selectivity Index = LC50/EC50) [1]: 172.7
EC50 [1, 5]: 0.32 ± 0.01 µM
Leishmanicidal activity [1]: High (high activity corresponds to EC50 values < 50 µM)
CC50 at 48 h [2]: 56.1 ± 5.8 µM

meglumine antimoniate [reference compound]
number of hamsters cured (L. braziliensis; [6]): 4 hamsters
therapeutic response (hamsters cured) (L. braziliensis; [6]): 67%
increase of lesion in uncured hamster (L. braziliensis; [7]): 80%
reduction in the lesion size in uncured hamster (L. braziliensis; [7]): 14%

COc1cc(/C=C/C(=O)CC(=O)/C=C/c2ccc(O)c(OC)c2)ccc1O [Curcumin, curcumin]
SI (Selectivity Index = LC50/EC50) [1]: > 17.4
SI (Selectivity Index = LC50/EC50) ([1]; listed as CUR): exceeds 10
EC50 ([1]; U-937, read-out: in vitro antileishmanial activity (EC50 in mass units)): 11.4 ± 0.1 µg/mL
EC50 [1, 5]: 30.9 ± 0.3 µM
Leishmanicidal activity [1]: High (high activity corresponds to EC50 values < 50 µM)
Dermis: fibroplasia (grade) [3]: 2
Dermis: granulomatous inflammation (grade) [3]: 0
Dermis: leukocytic infiltrate (grade) [3]: 2
Dermis: neovascularization (grade) [3]: 4
Dermis: oedema (grade) [3]: 1
Epidermis: orthokeratotic hyperkeratosis (grade) [3]: 2
Epidermis: spongiosis (grade) [3]: 1
Epidermis: ulcer (grade) [3]: 0
CC50 at 48 h [2]: > 543 µM
number of hamsters cured (L. braziliensis; topical 1.5 mg/day for 15 days, n = 6): 5 hamsters
treatment failures (L. braziliensis; topical daily for 15 days, n = 6): one hamster failed treatment
therapeutic response (hamsters cured) (L. braziliensis; [8]): 83%

COc1cccc2c1C(=O)c1c(O)c3c(c(O)c1C2=O)C[C@@](O)(C(=O)CO)C[C@@H]3O[C@H]1C[C@H](N)[C@H](O)[C@H](C)O1 [DOXO, Doxorubicin, reference compound]
CC50 at 48 h [2]: 1.47 ± 0.06 µM

O=C(/C=C/C=C/c1ccc2c(c1)OCO2)N1CCCCC1 [Piperine, piperine]
toxicity towards macrophages (macrophages): non-toxicity
SI (Selectivity Index = LC50/EC50) [1]: > 80
EC50 ([1]; U-937, amastigote stage of L. braziliensis, read-out: in vitro antileishmanial activity (EC50 in mass units)): 2.5 ± 0.4 µg/mL
EC50 ([1]; U-937, read-out: effective concentration (in vitro leishmanicidal activity)): 8 µM
EC50 [1, 5]: 8.76 ± 1.4 µM
Leishmanicidal activity [1]: High (high activity corresponds to EC50 values < 50 µM)
Dermis: fibroplasia (grade) [3]: 2
Dermis: granulomatous inflammation (grade) [3]: 0
Dermis: leukocytic infiltrate (grade) [3]: 2
Dermis: neovascularization (grade) [3]: 2
Dermis: oedema (grade) [3]: 1
Epidermis: orthokeratotic hyperkeratosis (grade) [3]: 2
Epidermis: spongiosis (grade) [3]: 2
Epidermis: ulcer (grade) [3]: 0
Cytotoxicity (U-937 cells): Low (low cytotoxicity for LC50 values > 200 µM)
CC50 at 48 h [2]: > 701 µM
EC50 [4]: 28 µM
therapeutic response (hamsters cured) (L. braziliensis; [8]): 67%
